Results from the supplement of paper PMC12420376.

Key:
KURAMOCHI = test: drug sensitivity score (DSS2) on cancer cell count; higher = more sensitive; extreme values may be limits of the assay; conditions: 72 h
Outline: (§1)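 Ovarian cancer cells were grown alone or in 1:1 direct co-culture with lung or skin fibroblasts. They were plated onto 384-well plates pre-spotted acoustically with 528 approved and investigational compounds at 5 concentrations, then treated for 72 h. Cells were fixed, immunostained for CK8/18 with Hoechst, and imaged at 10× (4 fields) to count cancer cells. A drug sensitivity score (DSS2) was derived in Breeze from 4-parameter logistic fits, with screen quality checked by Z'.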

OVCAR8 = test: as above; conditions: 72 h
Outline: as §1

[1] = co-cultured fibroblast: BJHTERT
[2] = co-cultured fibroblast: none (monoculture)

SMILES | drug sensitivity score (KURAMOCHI; [1]) [DSS] | drug sensitivity score (KURAMOCHI; co-cultured fibroblast: WI38) [DSS] | drug sensitivity score (KURAMOCHI; [2]) [DSS] | drug sensitivity score (OVCAR8; [1]) [DSS] | drug sensitivity score (OVCAR8; co-cultured fibroblast: WI38) [DSS] | drug sensitivity score (OVCAR8; [2]) [DSS]
Nc1nc(NC2CC2)cc(-c2cccc(Cl)c2Cl)n1 [TH588] | 6 | 6.7 | 6.5 | 7.4 | 4.5 | 3.3
Cc1[nH]c2ccccc2c1CCNCc1ccc(/C=C/C(=O)NO)cc1 [Panobinostat] | 14.8 | 19.4 | 21.8 | 28.1 | 20.1 | 26.4
CNCc1ccc(-c2[nH]c3cc(F)cc4c3c2CCNC4=O)cc1 [Rucaparib] | 3.7 | 5.3 | 14.1 | 8.5 | 3.5 | 6.5
CO[C@H]1C[C@@H]2CC[C@@H](C)[C@@](O)(O2)C(=O)C(=O)N2CCCC[C@H]2C(=O)O[C@H]([C@H](C)C[C@@H]2CC[C@@H](OC(=O)C(C)(CO)CO)[C@H](OC)C2)CC(=O)[C@H](C)/C=C(\C)[C@@H](O)[C@@H](OC)C(=O)[C@H](C)C[C@H](C)/C=C/C=C/C=C/1C [Temsirolimus] | 16.8 | 14.2 | 8.6 | 8.8 | 0 | 11
Nc1ncnc2c1nc(N)n2[C@@H]1O[C@H](CO)[C@@H](O)[C@H]1O [8-amino-adenosine] | 21 | 20.3 | 21.4 | 17.9 | 16.5 | 19.5
CN[C@@H](C)C(=O)N[C@H]1CN(C(=O)CC(C)C)CC[C@H]2CC[C@@H](C(=O)NC(c3ccccc3)c3ccccc3)N2C1=O [AT-406] | 0 | 0 | 0 | 10 | 9.9 | 9.7
COc1cccc2c1C(=O)c1c(O)c3c(c(O)c1C2=O)C[C@@](O)(C(C)=O)C[C@@H]3O[C@H]1C[C@H](N)[C@H](O)[C@H](C)O1 [Daunorubicin] | 11.9 | 14.6 | 13.9 | 14.7 | 15.9 | 15.1
C1=N/C2=N/c3ccc(OCCN4CCCC4)c(c3)COC/C=C/COCc3cccc(c3)C(=C1)N2 [Pacritinib] | 8.2 | 8.6 | 4.4 | 9.5 | 5.6 | 7.7
CCn1c(-c2nonc2N)nc2c(C#CC(C)(C)O)ncc(OC[C@H]3CCCNC3)c21 | 4.3 | 6.1 | 3.9 | 0.2 | 1.1 | 0.4
COc1cc(CCc2cc(NC(=O)c3ccc(N4CC(C)NC(C)C4)cc3)n[nH]2)cc(OC)c1 (stereo not drawn) [AZD4547] | 0 | 0 | 0 | 0 | 0 | 0
CCS(=O)(=O)Nc1ccc(Oc2ccc(F)cc2F)c(-c2cn(C)c(=O)c3[nH]ccc23)c1 [Mivebresib] | 22.6 | 21.7 | 17.5 | 35.4 | 26.9 | 30.9
Cc1ncc(-c2ccnc(Nc3ccc(S(C)(=O)=O)cc3)n2)n1C(C)C [AZD-5438] | 17.8 | 22.5 | 17.7 | 19 | 19.2 | 17.2
CC(C)[C@H]1C(=O)N[C@@H](CCCNC(=N)N)C(=O)NCC(=O)N[C@@H](CC(=O)O)C(=O)N[C@H](Cc2ccccc2)C(=O)N1C [Cilengitide] | 5.8 | 3.3 | 7.4 | 9.6 | 16.3 | 13.2
CN1CCN(CCOc2cc(OC3CCOCC3)c3c(Nc4c(Cl)ccc5c4OCO5)ncnc3c2)CC1 [Saracatinib] | 10.4 | 9.6 | 9.9 | 9.2 | 13.3 | 14.6
CN1CCN(C2CCC(n3cc(-c4ccc(Oc5ccccc5)cc4)c4c(N)ncnc43)CC2)CC1 (stereo not drawn) | 19.5 | 17.8 | 20.5 | 12.9 | 11.4 | 18.6
N#CC(c1ccnc(OCc2ccc(CN3CCOCC3)cc2)n1)c1nc2ccccc2s1 (stereo not drawn) [Bentamapimod] | 2.5 | 2.3 | 0.2 | 0 | 0 | 1.4
O=C1Cc2cc(C(=O)NC3C[C@H]4CC[C@@H](C3)N4S(=O)(=O)CC3CCN(CCCC(F)(F)F)CC3)c(Cl)cc2N1 (stereo partly drawn) | 0 | 0.1 | 0 | 0 | 0 | 0
CN(c1ncccc1CNc1nc(Nc2ccc3c(c2)CC(=O)N3)ncc1C(F)(F)F)S(C)(=O)=O | 11.5 | 10.7 | 12.6 | 8.5 | 6.6 | 6.2
O=C(NOC[C@H](O)CO)c1ccc(F)c(F)c1Nc1ccc(I)cc1F | 8.8 | 0.8 | 3.3 | 7.7 | 0 | 10.6
COc1cc2nccc(Oc3ccc(NC(=O)NC4CC4)c(Cl)c3)c2cc1C(N)=O [Lenvatinib] | 0.2 | 0 | 0 | 0 | 0 | 0.7
COc1ccc(CCc2nc3cc(-c4c(C)noc4C)ccc3n2C[C@H](C)N2CCOCC2)cc1Cl [SGC-CBP30] | 5.7 | 1.3 | 3.2 | 9.9 | 1.7 | 4.5
CC(C)Cn1cnc2c(N)nc3ccccc3c21 [Imiquimod] | 0 | 0.1 | 13.4 | 0.4 | 0 | 2.8
COC(=O)c1ccc([C@H]2c3[nH]c4ccccc4c3C[C@H](C(=O)OC)N2C(=O)CCl)cc1 [RSL3] | 0 | 0 | 2.5 | 0 | 0 | 0
Nc1ncnc2c1nc(Cl)n2[C@@H]1O[C@H](CO)[C@@H](O)[C@H]1O [8-chloro-adenosine] | 10.1 | 10.4 | 10.3 | 12.9 | 9.9 | 16.9

SMILES | drug sensitivity score (KURAMOCHI; [1]) [DSS] | drug sensitivity score (KURAMOCHI; co-cultured fibroblast: WI38) [DSS] | drug sensitivity score (KURAMOCHI; [2]) [DSS] | drug sensitivity score (OVCAR8; [1]) [DSS] | drug sensitivity score (OVCAR8; co-cultured fibroblast: WI38) [DSS] | drug sensitivity score (OVCAR8; [2]) [DSS]
Cn1cc(C2=C(c3cn(C4CCN(Cc5ccccn5)CC4)c4ccccc34)C(=O)NC2=O)c2ccccc21 [Enzastaurin] | 0 | 0.6 | 0 | 0 | 6.4 | 0
C=CCc1cccc(/C=N/NC(=O)CN2CCN(Cc3ccccc3)CC2)c1O [PAC-1] | 2.7 | 3.3 | 4.9 | 7.4 | 1.5 | 4.9
CC[C@@H](C(=O)[C@@H](C)[C@@H](O)[C@H](C)[C@@H]1O[C@@H]([C@@H](CC)C(=O)O)CC[C@@H]1C)[C@H]1O[C@]2(C=C[C@@H](O)[C@]3(CC[C@@](C)([C@H]4CC[C@](O)(CC)[C@H](C)O4)O3)O2)[C@H](C)C[C@@H]1C [Salinomycin] | 23.1 | 23.6 | 28.5 | 22.1 | 12.2 | 21.1
CN(C)C(=O)c1ccc(S(=O)(=O)c2ccc(NC(=O)[C@@](C)(O)C(F)(F)F)c(Cl)c2)cc1 [AZD7545] | 0.4 | 0 | 0 | 3.4 | 0 | 0.7
O=C(O)CC1CC(c2ccccc2)=NO1 (stereo not drawn) [VGX-1027] | 0 | 0 | 0 | 0.3 | 0 | 0
C[C@H]1CN(C2COC2)CCN1c1ccc(Nc2cc(-c3ccnc(N4CCn5c(cc6c5CC(C)(C)C6)C4=O)c3CO)cn(C)c2=O)nc1 [GDC-0853] | 0 | 0 | 0 | 0 | 2.3 | 0
CC(=O)N(O)CCCCCNC(=O)CCC(=O)N(O)CCCCCNC(=O)CCC(=O)N(O)CCCCCN [Deferoxamine] | 4.5 | 7.3 | 1.6 | 3.6 | 3.5 | 7.7
O=c1[nH]c(=O)n([C@H]2C[C@H](O)[C@@H](CO)O2)cc1C(F)(F)F [Trifluridine] | 5.4 | 9.2 | 7.4 | 5.2 | 2.7 | 9
COc1cc(Br)c(Nc2nc(-c3c(C)nc4ncccn34)cs2)c(Br)c1 [PTC-209] | 2.4 | 3.6 | 7.9 | 9.1 | 3.1 | 6.9
CC1(C)CCC(c2ccc(Cl)cc2)=C(CN2CCN(c3ccc(C(=O)NS(=O)(=O)c4ccc(N[C@H](CCN5CCOCC5)CSc5ccccc5)c(S(=O)(=O)C(F)(F)F)c4)cc3)CC2)C1 [Navitoclax] | 2.4 | 3.1 | 1.1 | 7.5 | 0 | 0.3
CC(C)(C)c1cc(NC(=O)Nc2ccc(-c3cn4c(n3)sc3cc(OCCN5CCOCC5)ccc34)cc2)no1 [Quizartinib] | 0 | 0 | 0 | 3.6 | 6.2 | 0
CCc1cnn2c(NCc3ccc[n+]([O-])c3)cc(N3CCCC[C@H]3CCO)nc12 [Dinaciclib] | 17.2 | 23.9 | 23 | 26.4 | 17.1 | 23.1
Cc1c(N)nc([C@H](CC(N)=O)NC[C@H](N)C(N)=O)nc1C(=O)N[C@H](C(=O)N[C@H](C)[C@@H](O)[C@H](C)C(=O)N[C@H](C(=O)NCCc1nc(-c2nc(C(=O)NCCC[S+](C)C)cs2)cs1)[C@@H](C)O)[C@@H](OC1OC(CO)C(O)C(O)C1OC1OC(CO)C(O)C(OC(N)=O)C1O)c1cnc[nH]1 (stereo partly drawn) [Bleomycin] | 13.5 | 15.4 | 18.8 | 12.1 | 11.5 | 14.5
CO[C@H]1C[C@@H]2CC[C@@H](C)[C@@](O)(O2)C(=O)C(=O)N2CCCC[C@H]2C(=O)O[C@H]([C@H](C)C[C@@H]2CC[C@@H](O)[C@H](OC)C2)CC(=O)[C@H](C)/C=C(\C)[C@@H](O)[C@@H](OC)C(=O)[C@H](C)C[C@H](C)/C=C/C=C/C=C/1C [Sirolimus] | 4.2 | 5 | 7.1 | 4.5 | 0 | 9.2
Nc1ccccc1NC(=O)c1ccc(CNc2nccc(-c3cccnc3)n2)cc1 [Mocetinostat] | 10.4 | 13.9 | 13.7 | 14 | 19.3 | 21.7
Cn1nccc1Nc1nccc(-c2ccn([C@H](CO)c3ccc(Cl)c(F)c3)c(=O)c2)n1 [Ravoxertinib] | 3.6 | 3.2 | 3.3 | 2.2 | 4.3 | 4.9
CNC(=O)c1cc(Oc2ccc(NC(=O)Nc3ccc(Cl)c(C(F)(F)F)c3)c(F)c2)ccn1 [Regorafenib] | 5.5 | 3.6 | 3.2 | 5.4 | 3.3 | 5.5
CC1(COc2ccc3c(c2)ncn3-c2ccc3cccc(N4CCC(N)CC4)c3n2)COC1 [Crenolanib] | 12.6 | 10.5 | 18 | 4.7 | 14.6 | 5.5
Oc1nc(-c2ccc(C(F)(F)F)cc2)nc2c1CSCC2 [XAV-939] | 1.1 | 0 | 0.5 | 0.6 | 0.1 | 0.3
Cc1nn(C)c(COc2ccc(N3CCN(S(=O)(=O)N(C)C)CC3)cc2)c1-c1cccc2c(CCCOc3cccc4ccccc34)c(C(=O)O)n(CCN3CCOCC3)c12 | 5.7 | 8.5 | 10.3 | 4.7 | 4 | 8.2
NC(=O)c1cccc(-c2cccc(OC(=O)NC3CCCCC3)c2)c1 [URB597] | 0 | 0 | 0 | 0 | 0 | 0
CNC(=O)c1ccccc1Nc1cc(Nc2ccc(N3CCOCC3)cc2OC)ncc1C(F)(F)F [VS-4718] | 9 | 7.9 | 14.2 | 6.7 | 3.5 | 8.5
Cn1ncc(Cl)c1-c1cc(C(=O)N[C@H](CN)Cc2ccc(F)c(F)c2)oc1Cl [Uprosertib] | 0.5 | 4.4 | 2 | 0.6 | 0 | 0.1
C=CC[C@@H]1/C=C(\C)C[C@H](C)C[C@H](OC)[C@H]2O[C@@](O)(C(=O)C(=O)N3CCCC[C@H]3C(=O)O[C@H](/C(C)=C/[C@@H]3CC[C@@H](O)[C@H](OC)C3)[C@H](C)[C@@H](O)CC1=O)[C@H](C)C[C@@H]2OC [Tacrolimus] | 1 | 1 | 18.5 | 0.8 | 0 | 3.1
